According to PubChem BioAssay AID540261 (Sanford-Burnham Center for Chemical Genomics, 2011):
Activity calls are given as the source filed them.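 Rule for the calls: active = compounds whose average half-maximal inhibitory concentration on the enzyme falls below 100 micromolar; inactive = the rest.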

Target: Alkaline phosphatase, tissue-nonspecific isozyme (Homo sapiens) (UniProt P05186)
Experiment: human TNAP enzyme inhibitors, SAR follow-up, selectivity assay for human IAP inhibitor project, biochemical, set 2, CDP-Star luminescence (AID 540261)
Conditions: purified human TNAP, 30 min

Sequence of Alkaline phosphatase, tissue-nonspecific isozyme (Homo sapiens) (P05186 whole entry, looked up): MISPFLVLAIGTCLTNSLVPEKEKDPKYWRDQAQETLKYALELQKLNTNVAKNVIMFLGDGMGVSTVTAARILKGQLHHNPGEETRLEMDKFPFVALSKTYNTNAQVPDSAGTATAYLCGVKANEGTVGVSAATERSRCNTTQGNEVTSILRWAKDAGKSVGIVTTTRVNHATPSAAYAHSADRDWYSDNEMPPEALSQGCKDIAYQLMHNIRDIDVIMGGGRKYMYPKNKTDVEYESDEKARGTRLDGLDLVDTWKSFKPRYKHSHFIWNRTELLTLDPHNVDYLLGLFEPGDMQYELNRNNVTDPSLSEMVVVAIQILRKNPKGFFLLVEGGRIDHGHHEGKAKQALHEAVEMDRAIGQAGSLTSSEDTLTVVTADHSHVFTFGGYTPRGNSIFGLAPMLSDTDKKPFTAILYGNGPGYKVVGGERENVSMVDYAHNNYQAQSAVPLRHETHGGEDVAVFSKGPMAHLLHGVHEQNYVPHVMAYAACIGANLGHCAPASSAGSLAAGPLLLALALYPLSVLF

| IC50 | Structure (SMILES) |
| --- | --- |
| > 100 µM (inactive) | COc1ccc(NC(=O)CNS(=O)(=O)c2ccc3[nH]c(=O)oc3c2)cc1OC |
| > 100 µM (inactive) | N#Cc1ccc(CNC(=O)CCNS(=O)(=O)c2ccc3[nH]c(=O)oc3c2)cc1 |
| > 100 µM (inactive) | Cc1ccc(C)c(NC(=O)CCNS(=O)(=O)c2ccc3[nH]c(=O)oc3c2)c1 |

Second part, the compound before the results:

| Structure (SMILES) | IC50 |
| --- | --- |
| O=C(CNS(=O)(=O)c1ccc2[nH]c(=O)oc2c1)NCc1ccc2c(c1)OCO2 | > 100 µM (inactive) |
| O=C(CNS(=O)(=O)c1ccc2[nH]c(=O)oc2c1)Nc1ccc2c(c1)OCO2 | > 100 µM (inactive) |
